Values of other authors, collected in patent US20140012157A1, “Monobody Sensors for Monitoring Neuromuscular Blockade” (priority 2007, published 2014).

Experiments:
[1] = PTC of 1 measured; from t=18.8−6.46√PTC
[2] = manufacturer's recommended intubation dose
[3] = test system: isolated cat anterior tibialis and sartorius muscles

Structure (SMILES) | time until return of the TOF [1] [min] | 2×ED 95 dose (double the dose that is effective for 95% of the population) [2] [mg/kg] | receptors that had to be blocked by the antagonist before block was noticeable [3] [%] | receptors that had to be blocked for near complete blockade [3] [%]
C=CC[N+]1([C@H]2C[C@H]3[C@@H]4CC[C@H]5C[C@H](O)[C@@H](N6CCOCC6)C[C@]5(C)[C@H]4CC[C@]3(C)[C@H]2OC(C)=O)CCCC1 [rocuronium] | 12.34 | 0.6 | – | –
COc1cc2c3cc1Oc1cc(ccc1O)C[C@@H]1c4c(cc(OC)c(O)c4Oc4ccc(cc4)C[C@@H]3N(C)CC2)CC[N+]1(C)C [tubocurarine] | – | – | 76 | 92
